One experiment has as its target RET kinase (Homo sapiens, UniProt P07949). Put plainly: In-vitro enzyme activity test, RET kinase. Format: biochemical. The conditions noted are these: ATP 20 μM; 10 concentrations 3 μM to 0.152 nM. The protocol: (§1) The enzyme activity was detected by a Z′-LYTE™ kinase test, and inhibitory effects of the compounds onRET and RET (V804M) kinases were evaluated with an ICs value of each compound as an index.
(§2) The compounds used for RET and RET (V804M) kinase tests were diluted 3-fold, in 10 concentration gradients ranging from 3 μM to 0.152 nM; and the content of DMSO in detection reaction was 1%.
(§3) Basic reaction buffer, 20 mM 4-(2-hydroxyethyl)piperazine-1-ethanesulfonic acid (Hepes) buffer (pH 7.5), 10 mM MgCl2. 1 mM 1,2-bis[2-[bis(carboxymethyl)amino]ethoxy]ethane (EGTA), 0.02% polyoxyethylene lauryl ether (Brij35), 0.02 mg/mL bovine serum albumin, 0.1 mM of Na3VO4, 2 mM dithiothreitol (DTT) and 1% DMSO.
(§4) The compounds to be tested were dissolved in a 100% DMSO system to be diluted to 10 mM for further use. The solution was diluted by using Integra Viaflo Assist.
(§5) Test conditions: concentrations of RET kinase, peptide substrate CHKtide and adenosine triphosphate (ATP) were […], 1000 μM and 20 μM, respectively, and concentrations of RET (V804M) kinase, substrate peptide and ATP were […], 1000 μM and 30 μM, respectively.
(§6) Reaction process: compound solutions of different concentrations were added to a kinase/peptide solution prepared according to the test conditions, the obtained solution was incubated at room temperature for 20 minutes, and then 33P-ATP of corresponding concentrations were added, and the obtained solution was incubated at room temperature for 120 minutes. The radioactivity was detected by a filter-binding method.
(§7) The reaction was terminated by adding phosphoric acid (concentration, 0.5%) into a kinase reaction solution, and plate reading was carried out with an Envision instrument.
(§8) Data were converted into phosphorylation rate and inhibition rate, and the parametric curve was fitted by using GraphPad Software to obtain IC50 data of the compounds.

A further experiment has as its target RET (V804M) kinase (Homo sapiens, UniProt P07949, V804M). The experiment is described as follows: In-vitro enzyme activity test, RET (V804M) kinase. Type of experiment: biochemical. The conditions noted are these: ATP 30 μM; 10 concentrations 3 μM to 0.152 nM. As to the method:
as §1, §2, §3, §4, §5, §6, §7, §8

Counter-ions that a name gives are not always drawn.

RET kinase, sequence (P07949 29-1114): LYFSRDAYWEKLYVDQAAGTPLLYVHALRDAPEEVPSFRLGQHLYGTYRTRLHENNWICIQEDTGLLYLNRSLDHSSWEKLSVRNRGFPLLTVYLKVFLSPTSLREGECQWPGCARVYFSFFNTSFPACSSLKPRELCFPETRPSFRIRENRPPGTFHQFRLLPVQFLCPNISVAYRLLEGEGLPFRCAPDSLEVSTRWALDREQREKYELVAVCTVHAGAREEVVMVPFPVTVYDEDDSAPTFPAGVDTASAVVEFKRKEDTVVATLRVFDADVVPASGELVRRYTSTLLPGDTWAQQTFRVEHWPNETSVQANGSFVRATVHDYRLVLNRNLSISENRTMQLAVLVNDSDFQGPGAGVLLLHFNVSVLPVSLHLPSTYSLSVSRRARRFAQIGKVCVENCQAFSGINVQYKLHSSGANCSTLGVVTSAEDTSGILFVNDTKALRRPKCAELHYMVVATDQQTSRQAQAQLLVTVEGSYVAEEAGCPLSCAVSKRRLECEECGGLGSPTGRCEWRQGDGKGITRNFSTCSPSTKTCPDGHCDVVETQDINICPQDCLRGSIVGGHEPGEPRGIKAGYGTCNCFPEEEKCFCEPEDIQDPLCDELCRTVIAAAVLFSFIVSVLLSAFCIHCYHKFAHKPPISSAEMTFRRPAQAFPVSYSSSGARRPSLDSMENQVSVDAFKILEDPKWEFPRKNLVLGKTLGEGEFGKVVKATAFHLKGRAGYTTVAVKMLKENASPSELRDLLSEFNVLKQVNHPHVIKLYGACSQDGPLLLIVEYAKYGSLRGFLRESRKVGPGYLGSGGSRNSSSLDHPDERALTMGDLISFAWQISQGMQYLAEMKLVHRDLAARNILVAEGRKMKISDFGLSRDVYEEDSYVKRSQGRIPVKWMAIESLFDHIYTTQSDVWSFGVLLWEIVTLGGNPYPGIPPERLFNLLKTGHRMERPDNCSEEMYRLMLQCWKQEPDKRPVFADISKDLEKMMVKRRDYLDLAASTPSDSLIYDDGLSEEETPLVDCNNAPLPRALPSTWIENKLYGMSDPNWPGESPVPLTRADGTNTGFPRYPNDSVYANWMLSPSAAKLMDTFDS
RET (V804M) kinase, sequence (P07949 29-1114 V804M): as the sequence (P07949 29-1114) above, with V776M counted along it

The IC50 is the concentration needed to halve the response being measured. Lower therefore signals greater potency. On to `N#Cc1cnn2cc(C3CC3)cc(-c3ccc(N4CCN(Cc5c(F)cccc5F)CC4)nc3)c12` [Compound 1], for which the IC50 against RET kinase came to 3.66 nM; against RET (V804M) kinase, 36.1 nM.
The matching figures for `N#Cc1cnn2cc(C3=CCOCC3)cc(-c3ccc(N4CC5CC(C4)N5Cc4cnc5[nH]ccc5c4)nc3)c12` [Compound 35]: 1.57 nM and 5.47 nM.
Consider `COc1cnc(CN2C3CC2CN(c2ccc(-c4cc(C5=CCOCC5)cn5ncc(C#N)c45)cn2)C3)cn1` [Compound 36], for which the IC50 was found to be 1.22 nM against RET kinase and 3.79 nM on RET (V804M) kinase.
Turning to `N#Cc1cnn2cc(C3=CCOCC3)cc(-c3ccc(N4CC5CC(C4)N5Cc4ccc5[nH]cnc5c4)nc3)c12` [Compound 37], the IC50 at RET kinase was 2.3 nM; against RET (V804M) kinase it was 15.6 nM.
In the case of `N#Cc1cnn2cc(C3=CCOCC3)cc(-c3ccc(N4CC5CC(C4)N5Cc4ccc5[nH]ccc5c4)nc3)c12` [Compound 38], the IC50 against RET kinase worked out at 1.21 nM; at RET (V804M) kinase, 5.93 nM.
In the case of `COc1ccc(CN2C3CC2CN(c2ccc(-c4cc(C5=CCNC(C)C5)cn5ncc(C#N)c45)cn2)C3)cn1` (centres unmarked) [Compound 41], the IC50 on RET kinase worked out at 3.09 nM; on RET (V804M) kinase it was 11.3 nM.
With `N#Cc1cnn2cc(C3=CCOCC3)cc(-c3cnc(N4CC5CC(C4)N5Cc4ccc5[nH]ccc5c4)cn3)c12` [Compound 45], the IC50 worked out at 1.83 nM against RET kinase and 7.53 nM on RET (V804M) kinase.
The corresponding values for `CN1CCC(c2cc(-c3ccc(N4CCN(Cc5c(F)cccc5F)CC4)nc3)c3c(C#N)cnn3c2)CC1` [Hydrochloride of compound 2] are 95.5 nM and 1410 nM.
The matching figures for `C[C@@H](C(=O)N1CCN(c2ccc(-c3cc(N4CCOCC4)cn4ncc(C#N)c34)cn2)CC1)c1ccccc1` [Hydrochloride of compound 4]: 2.42 nM and 22.7 nM.
In the case of `N#Cc1cnn2cc(C3=CCNCC3)cc(-c3ccc(N4CCN(Cc5c(F)cccc5F)CC4)nc3)c12` [Tfifluoroacetate of compound 25], the IC50 against RET kinase amounted to 1.62 nM; on RET (V804M) kinase it was 11 nM.
The corresponding values for `CCN1CCC(c2cc(-c3ccc(N4CCN(Cc5c(F)cccc5F)CC4)nc3)c3c(C#N)cnn3c2)C1` (centres unmarked) [Trifluoroacetate of compound 7] are 239 nM and 1930 nM.
The corresponding values for `COc1ccc(CN2C3CC2CN(c2cnc(-c4cc(C5CC5)cn5ncc(C#N)c45)cn2)C3)cn1` [Trifluoroacetate of compound 8] are 1.15 nM and 3.14 nM.
The corresponding values for `COc1ccc(CN2C3CC2CN(c2ccc(-c4cc(N5CCOCC5)cn5ncc(C#N)c45)cn2)C3)cn1` [Trifluoroacetate of compound 9] are 0.97 nM and 1.8 nM.
`COc1ccc(CN2C3CC2CN(c2ccc(-c4cc(N5CCNCC5)cn5ncc(C#N)c45)cn2)C3)cn1` [Trifluoroacetate of compound 10]: the IC50 against RET kinase is 0.69 nM; against RET (V804M) kinase, 3.79 nM.
The matching figures for `COc1c(F)cc(CN2C3CC2CN(c2ccc(-c4cc(N5CCOCC5)cn5ncc(C#N)c45)cn2)C3)cc1F` [Trifluoroacetate of compound 11]: 1.3 nM and 0.61 nM.
The matching figures for `CC(C)Oc1ccc(CN2C3CC2CN(c2ccc(-c4cc(N5CCOCC5)cn5ncc(C#N)c45)cn2)C3)cn1` [Trifluoroacetate of compound 12]: 0.61 nM and 0.51 nM.
The matching figures for `N#Cc1cnn2cc(N3CCOCC3)cc(-c3ccc(N4CC5CC(C4)N5Cc4cnc5c(c4)OCO5)nc3)c12` [Trifluoroacetate of compound 13]: 1.57 nM and 3.49 nM.
Take `N#Cc1cnn2cc(N3CCOCC3)cc(-c3ccc(N4CC5CC(C4)N5Cc4cnc5[nH]ccc5c4)nc3)c12` [Trifluoroacetate of compound 14]: the IC50 on RET kinase is 0.72 nM; on RET (V804M) kinase, 0.48 nM.
For the compound `N#Cc1cnn2cc(C3=CCOCC3)cc(-c3ccc(N4CCN(Cc5c(F)cccc5F)CC4)nc3)c12` [Trifluoroacetate of compound 22], the IC50 against RET kinase came to 0.47 nM; against RET (V804M) kinase, 2.04 nM.
The matching figures for `CN1CC=C(c2cc(-c3ccc(N4CCN(Cc5c(F)cccc5F)CC4)nc3)c3c(C#N)cnn3c2)C1` [Trifluoroacetate of compound 24]: 1.1 nM and 8.43 nM.
The corresponding values for `CN1CC=C(c2cc(-c3ccc(N4CCN(Cc5c(F)cccc5F)CC4)nc3)c3c(C#N)cnn3c2)CC1` [Trifluoroacetate of compound 26] are 3.82 nM and 22 nM.
The corresponding values for `CCN1CC=C(c2cc(-c3ccc(N4CCN(Cc5c(F)cccc5F)CC4)nc3)c3c(C#N)cnn3c2)CC1` [Trifluoroacetate of compound 27] are 4.37 nM and 33.6 nM.
Regarding `C[C@@H](C(=O)N1CCN(c2ccc(-c3cc(C4=CCOC4)cn4ncc(C#N)c34)cn2)CC1)c1ccccc1` [Trifluoroacetate of compound 28], the concentration for half-maximal inhibition (IC50) at RET kinase is 1.58 nM; at RET (V804M) kinase it was 11.6 nM.
The matching figures for `COc1ccc(CN2C3CC2CN(c2ccc(-c4cc(C5=CCNCC5)cn5ncc(C#N)c45)cn2)C3)cn1` [Trifluoroacetate of compound 32]: 1.1 nM and 3.15 nM.
The corresponding values for `COc1ccc(CN2C3CC2CN(c2ccc(-c4cc(C5=CCOCC5)cn5ncc(C#N)c45)cn2)C3)cn1` [Trifluoroacetate of compound 33] are 1.47 nM and 7.43 nM.
On to `COc1ccc(CN2C3CC2CN(c2ccc(-c4cc(C5=CCC(O)CC5)cn5ncc(C#N)c45)cn2)C3)cn1` (centres unmarked) [Trifluoroacetate of compound 39], for which the IC50 was found to be 0.67 nM against RET kinase and 2.27 nM against RET (V804M) kinase.
Consider `N#Cc1cnn2cc(N3CCCC3)cc(-c3ccc(N4CCC(C(=O)NC5CC(F)(F)C5)CC4)nc3)c12` [Trifluoroacetate of compound 58], for which the IC50 was determined as 1.8 nM at RET kinase and 7.81 nM against RET (V804M) kinase.
For the compound `CC(C)(O)CNC(=O)C1CCN(c2ccc(-c3cc(N4CCCC4)cn4ncc(C#N)c34)cn2)CC1` [Trifluoroacetate of compound 60], the IC50 on RET kinase amounted to 3.87 nM; against RET (V804M) kinase, 19.9 nM.
Consider `CO[C@H]1C[C@@H](NC(=O)C2CCN(c3ccc(-c4cc(N5CCCC5)cn5ncc(C#N)c45)cn3)CC2)C1` [Trifluoroacetate of compound 61], for which the IC50 on RET kinase was found to be 1.77 nM; at RET (V804M) kinase, 8.85 nM.
The corresponding values for `COc1ccc(CN2CCN(c3ccc(-c4cc(N5CCCC5)cn5ncc(C#N)c45)cn3)CC2)cn1` [Trifluoroacetate of compound 63] are 1.6 nM and 5.68 nM.
Turning to `COc1ccc(CN2C3CC2CN(c2cnc(-c4cc(N5CC[C@H](F)C5)cn5ncc(C#N)c45)cn2)C3)cn1` [Trifluoroacetate of compound 66], the IC50 on RET kinase was determined as 1.62 nM; at RET (V804M) kinase, 7.53 nM.
The matching figures for `COc1ccc(CN2C3CC2CN(c2cnc(-c4cc(N5CC[C@@H](F)C5)cn5ncc(C#N)c45)cn2)C3)cn1` [Trifluoroacetate of compound 67]: 1.09 nM and 1.6 nM.
The corresponding values for `COc1ccc(CN2C3CC2CN(c2ccc(-c4cc(N5CC[C@@H](F)C5)cn5ncc(C#N)c45)cn2)C3)cn1` [Trifluoroacetate of compound 68] are 1.53 nM and 1.47 nM.
The matching figures for `COc1ccc(CN2C3CC2CN(c2ccc(-c4cc(N5CCC(N(C)C)C5)cn5ncc(C#N)c45)cn2)C3)cn1` (centres unmarked) [Triftuoroacelate of compound 72]: 6.6 nM and 12 nM.
`N#Cc1cnn2cc(C3=CCOCC3)cc(-c3ccc(N4CC5CC(C4)N5Cc4ccnc5c4OCO5)nc3)c12` [Triftuoroacetate of compound 43] returned an IC50 on RET kinase of 0.72 nM.
As for `N#Cc1cnn2cc(N3CCCC3)cc(-c3ccc(N4CCN(Cc5c(F)cccc5F)CC4)nc3)c12` [Triftuoroacetate of compound 57], the IC50 came to 1.98 nM against RET kinase and 8.11 nM against RET (V804M) kinase.
The corresponding values for `COc1ccc(CN2C3CC2CN(c2cnc(-c4cc(N5CCCC5)cn5ncc(C#N)c45)cn2)C3)cn1` [Triftuoroacetate of compound 64] are 1.23 nM and 2.67 nM.
Regarding `COc1ccc(CN2C3CC2CN(c2cnc(-c4cc(N5CCC(F)(F)C5)cn5ncc(C#N)c45)cn2)C3)cn1` [Trill uoroacetale of compound 65], the IC50 at RET kinase is 0.66 nM; on RET (V804M) kinase, 2.6 nM.
On RET kinase, `COc1ccc(CN2C3CC2CN(c2ccc(-c4cc(N5CC[C@H](OC)C5)cn5ncc(C#N)c45)cn2)C3)cn1` [compound 78] displayed an IC50 of 0.77 nM.
On the same count and under the same terms, then `COc1ccc(CN2C3CC2CN(c2ccc(-c4cc(N5CC[C@@H](OC)C5)cn5ncc(C#N)c45)cn2)C3)cn1` [compound 79], with 1.39 nM.

The values above are taken from US12297197B2, “Pyrazolopyridine compound as RET inhibitor and application thereof” (GUANGZHOU BAIYUNSHAN PHARMACEUTICAL HOLDINGS CO., LTD. …, priority 2019, dated 2025).
